Test results published in patent US20250154173A1 (Merck Sharp & Dohme LLC, priority 2023, published 2025).

Target: T1, GST-RIPK1 (recombinant GST-RIPK1 kinase domain (residues 1-327)) (Homo sapiens, UniProt Q13546)
T1 construct: recombinant GST-RIPK1 kinase domain (residues 1-327) enzyme produced from baculovirus-transfected Sf21 cells; host or cells: baculovirus-transfected Sf21 insect cells
T1 sequence (Q13546 1-327): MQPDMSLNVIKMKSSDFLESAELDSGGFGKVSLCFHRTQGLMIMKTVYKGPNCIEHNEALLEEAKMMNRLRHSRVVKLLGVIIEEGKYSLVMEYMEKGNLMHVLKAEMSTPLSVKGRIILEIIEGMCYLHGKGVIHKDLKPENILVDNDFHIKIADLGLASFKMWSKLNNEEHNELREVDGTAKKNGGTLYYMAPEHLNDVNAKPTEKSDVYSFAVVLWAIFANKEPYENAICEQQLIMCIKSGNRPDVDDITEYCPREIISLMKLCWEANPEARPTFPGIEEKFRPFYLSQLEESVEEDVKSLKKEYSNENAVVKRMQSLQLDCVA
Test: RIPK1-ADP-Glo Enzymatic Assay
Type: biochemical
Details: ten-point titration, top compound concentration of 100000 nM; 25 nM GST-RIPK1, 300 μM ATP, 3 μM dephosphorylated-MBP; 30 min pre-incubation, 150 min reaction
Method in brief: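 GST-RIPK1 kinase domain (residues 1-327, Sf21-expressed), 25 nM, preincubated 30 min with compound, then reacted 150 min with 300 μM ATP and 3 μM dephosphorylated MBP in pH 7.3 Hepes buffer, 1% DMSO. ADP measured by ADP-Glo luminescence; EC50 from ten-point titration (top 100000 nM), four-parameter fit.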

Compound	EC50 [nM]
O=C1N2[C@@H](CC[C@H]2c2cc(F)cc(F)c2)O[C@]12C[C@@H](Oc1cc(Cl)ncn1)C2 [Example 9.13, (1s,3S,5′S,7a′R)-3-((6-chloropyrimidin-4-yl)oxy)-5′-(3,5-difluorophenyl)tetrahydro-3′H-spiro[cyclobutane-1,2′-pyrrolo[2,1-b]oxazol]-3′-one]	108
O=C(O[C@H]1C[C@@]2(C1)O[C@@H]1CC[C@@H](c3cc(F)cc(F)c3)N1C2=O)c1ccccc1 [Example 14, (1r,3R,5′S,7a′R)-5′-(3,5-difluorophenyl)-3′-oxotetrahydro-3′H-spiro[cyclobutane-1,2′-pyrrolo[2,1-b]oxazol]-3-yl benzoate]	13
N#CCc1ncc(COC2CC3(C2)OC2CC[C@@H](c4cnccn4)N2C3=O)cc1Cl (stereo partly drawn) [Example 18.49, [3-chloro-5-({[(5′S)-3′-oxo-5′-(pyrazin-2-yl)tetrahydro-3′H-spiro[cyclobutane-1,2′-pyrrolo[2,1-b][1,3]oxazol]-3-yl]oxy}methyl)pyridin-2-yl]acetonitrile]	59
O=C1N2[C@@H](CC[C@H]2c2cncc(F)c2)OC12CCC(OCc1ccccc1)CC2 (single isomer, unassigned) [Example 2.1, ((1r or s),4R,5′S,7a′R)-4-(benzyloxy)-5′-(5-fluoropyridin-3-yl)tetrahydro-3′H-spiro[cyclohexane-1,2′-pyrrolo[2,1-b]oxazol]-3′-one]	1130
CCc1nnc(-c2ccc(COC3CC4(C3)OC3CC[C@@H](c5cnccn5)N3C4=O)cc2)o1 (stereo partly drawn) [Example 18.56, (5′S)-3-{[4-(5-ethyl-1,3,4-oxadiazol-2-yl)phenyl]methoxy}-5′-(pyrazin-2-yl)tetrahydro-3′H-spiro[cyclobutane-1,2′-pyrrolo[2,1-b][1,3]oxazol]-3′-one]	11
N#Cc1ccc(O[C@H]2C[C@@]3(C2)O[C@@H]2CC[C@@H](c4ccccc4)N2C3=O)cc1F [Example 8.1, 2-fluoro-4-(((1r,3R,5′S,7a′R)-3′-oxo-5′-phenyltetrahydro-3′H-spiro[cyclobutane-1,2′-pyrrolo[2,1-b]oxazol]-3-yl)oxy)benzonitrile]	31
O=C1N2C(CC[C@H]2c2cnccn2)OC12CC(OCc1cccc(Cn3ccnn3)c1)C2 (stereo partly drawn) [Example 18.76, (5′S)-5′-(pyrazin-2-yl)-3-({3-[(1H-1,2,3-triazol-1-yl)methyl]phenyl}methoxy)tetrahydro-3′H-spiro[cyclobutane-1,2′-pyrrolo[2,1-b][1,3]oxazol]-3′-one]	168
N#Cc1cc(OC2CC3(C2)O[C@@H]2CC[C@@H](c4cccc(F)c4F)N2C3=O)ncn1 (single isomer, unassigned) [Example 9.40, 6-{[(5′S,7a′R)-5′-(2,3-difluorophenyl)-3′-oxotetrahydro-3′H-spiro[cyclobutane-1,2′-pyrrolo[2,1-b][1,3]oxazol]-3-yl]oxy}pyrimidine-4-carbonitrile]	474
O=C1N2C(CC[C@H]2c2cnccn2)OC12CC(OCc1cnn(-c3ccccc3)c1)C2 (stereo partly drawn) [Example 18.7, (5′S)-3-[(1-phenyl-1H-pyrazol-4-yl)methoxy]-5′-(pyrazin-2-yl)tetrahydro-3′H-spiro[cyclobutane-1,2′-pyrrolo [2,1-b][1,3]oxazol]-3′-one]	52
O=C1N2[C@H](O[C@]13C[C@@H](OCc1ccccc1)C3)[C@H](O)C[C@H]2c1cnccn1 [Example 21.2, (1s,3S,5′S,7′R,7a′R)-3-(benzyloxy)-7′-hydroxy-5′-(pyrazin-2-yl)tetrahydro-3′H-spiro[cyclobutane-1,2′-pyrrolo[2,1-b]oxazol]-3′-one]	106
N#Cc1ccncc1COC1CC2(C1)OC1CC[C@@H](c3cnccn3)N1C2=O (stereo partly drawn) [Example 18.93, 3-({[(5′S)-3′-oxo-5′-(pyrazin-2-yl)tetrahydro-3′H-spiro[cyclobutane-1,2′-pyrrolo[2,1-b][1,3]oxazol]-3-yl]oxy}methyl)pyridine-4-carbonitrile]	329
O=C1N2[C@@H](CC[C@H]2c2cnccn2)OC12CC(OCc1ccccn1)C2 (stereo partly drawn) [Example 20.2, (5′S,7a′R)-5′-(pyrazin-2-yl)-3-[(pyridin-2-yl)methoxy]tetrahydro-3′H-spiro[cyclobutane-1,2′-pyrrolo[2,1-b][1,3]oxazol]-3′-one]	196
O=C1N2C(CC[C@H]2c2cnccn2)OC12CC(OCc1cc3ncccc3s1)C2 (stereo partly drawn) [Example 18.91, (5′S)-5′-(pyrazin-2-yl)-3-[(thieno[3,2-b]pyridin-2-yl)methoxy]tetrahydro-3′H-spiro[cyclobutane-1,2′-pyrrolo[2,1-b][1,3]oxazol]-3′-one]	22
O=C1N2[C@H](O[C@]13C[C@@H](OCc1ccccc1)C3)[C@@H](O)C[C@H]2c1cnccn1 [Example 21.1, (1s,3S,5′S,7′S,7a′R)-3-(benzyloxy)-7′-hydroxy-5′-(pyrazin-2-yl)tetrahydro-3′H-spiro[cyclobutane-1,2′-pyrrolo[2,1-b]oxazol]-3′-one]	255
O=C1N2[C@@H](CC[C@H]2c2cc(F)cc(F)c2)O[C@]12C[C@H](Oc1cc(-c3cnn(C(F)F)c3)ncn1)C2 [Example 9.54, (5′S,7a′R)-3-((6-(1-(difluoromethyl)-1H-pyrazol-4-yl)pyrimidin-4-yl)oxy)-5′-(3,5-difluorophenyl)tetrahydro-3′H-spiro[cyclobutane-1,2′-pyrrolo[2,1-b]oxazol]-3′-one]	24
O=C1N2[C@@H](CC[C@H]2c2cnccn2)O[C@]12C[C@@H](OCc1cccnc1)C2 [Example 18.1, (1S,3S,5′S,7a′R)-5′-(pyrazin-2-yl)-3-(pyridin-3-ylmethoxy)tetrahydro-3′H-spiro[cyclobutane-1,2′-pyrrolo[2,1-b]oxazol]-3′-one]	100
O=C1N2[C@@H](CC[C@H]2c2cnccn2)OC12CC(OCc1cccs1)C2 (stereo partly drawn) [Example 22.4, (5′S,7a′R)-5′-(pyrazin-2-yl)-3-(thiophen-2-ylmethoxy)tetrahydro-3′H-spiro[cyclobutane-1,2′-pyrrolo[2,1-b]oxazol]-3′-one]	146
O=C1N2[C@@H](CC[C@H]2c2cnccn2)OC12CC(Oc1ccccc1)C2 (stereo partly drawn) [Example 19.17, (5′S,7a′R)-3-phenoxy-5′-(pyrazin-2-yl)tetrahydro-3′H-spiro[cyclobutane-1,2′-pyrrolo[2,1-b][1,3]oxazol]-3′-one]	21
CSc1nnc2ccc(COC3CC4(C3)OC3CC[C@@H](c5cnccn5)N3C4=O)cn12 (stereo partly drawn) [Example 18.16, (5′S)-3-{[3-(methylsulfanyl)[1,2,4]triazolo[4,3-a]pyridin-6-yl]methoxy}-5′-(pyrazin-2-yl)tetrahydro-3′H-spiro[cyclobutane-1,2′-pyrrolo[2,1-b][1,3]oxazol]-3′-one]	349
CC(OC1CC2(C1)O[C@@H]1CC[C@@H](c3cc(F)cc(F)c3)N1C2=O)c1ncccc1F (single isomer, unassigned) [Example 12.3, (1R or S,3R or S,5′S,7a′R)-5′-(3,5-difluorophenyl)-3-((R or S)-1-(3-fluoropyridin-2-yl)ethoxy)tetrahydro-3′H-spiro[cyclobutane-1,2′-pyrrolo[2,1-b]oxazol]-3′-one]	239
N#Cc1cc(O[C@H]2C[C@@]3(C2)O[C@H]2CC[C@H](c4cnccn4)N2C3=O)ncn1 [Example 9.50, 6-(((5′R,7a′S)-3′-oxo-5′-(pyrazin-2-yl)tetrahydro-3′H-spiro[cyclobutane-1,2′-pyrrolo[2,1-b]oxazol]-3-yl)oxy)pyrimidine-4-carbonitrile]	330
O=C1N2[C@@H](CC[C@H]2c2cc(F)cc(F)c2)O[C@]12C[C@H](Oc1cccnc1Cl)C2 [Example 9.36, (5′S,7a′R)-3-[(2-chloropyridin-3-yl)oxy]-5′-(3,5-difluorophenyl)tetrahydro-3′H-spiro[cyclobutane-1,2′-pyrrolo[2,1-b][1,3]oxazol]-3′-one]	16
O=C1N2[C@@H](CC[C@H]2c2cnccn2)OC12CC(OCc1ccc(-c3nnco3)cc1)C2 (stereo partly drawn) [Example 18.58, (5′S, 7a′R)-3-{[4-(1,3,4-oxadiazol-2-yl)phenyl]methoxy}-5′-(pyrazin-2-yl)tetrahydro-3′H-spiro[cyclobutane-1,2′-pyrrolo[2,1-b][1,3]oxazol]-3′-one]	40
CCOc1ncc(COC2CC3(C2)OC2CC[C@@H](c4cnccn4)N2C3=O)cn1 (stereo partly drawn) [Example 18.8, (5′S)-3-[(2-ethoxypyrimidin-5-yl)methoxy]-5′-(pyrazin-2-yl)tetrahydro-3′H-spiro[cyclobutane-1,2′-pyrrolo[2,1-b][1,3]oxazol]-3′-one]	466
CCc1nnc(-c2ccc(COC3CC4(C3)OC3CC[C@@H](c5cnccn5)N3C4=O)cc2)o1 (stereo partly drawn) [Example 18.105, (5′S)-3-{[4-(5-ethyl-1,3,4-oxadiazol-2-yl)phenyl]methoxy}-5′-(pyrazin-2-yl)tetrahydro-3′H-spiro[cyclobutane-1,2′-pyrrolo[2,1-b][1,3]oxazol]-3′-one]	66
N#Cc1cc(OC2CC3(C2)O[C@@H]2CC[C@@H](c4cc(F)cc(F)c4)N2C3=O)ncc1F (single isomer, unassigned) [Example 17.2, 2-((((1r or s),3S,5′S,7a′R)-5′-(3,5-difluorophenyl)-3′-oxotetrahydro-3′H-spiro[cyclobutane-1,2′-pyrrolo[2,1-b]oxazol]-3-yl)oxy)-5-fluoroisonicotinonitrile]	227
